Assay results taken from patent EP2857388A1, “Azoles containing sulfone” (Grünenthal GmbH, priority 2013, dated 2015).

Target: T1, human B1R (Homo sapiens, UniProt P46663)
T1 construct: expressed in transfected cells; host or cells: CHO K1 cells (Chinese Hamster Ovary), stably transfected
T1 sequence (P46663 1-353): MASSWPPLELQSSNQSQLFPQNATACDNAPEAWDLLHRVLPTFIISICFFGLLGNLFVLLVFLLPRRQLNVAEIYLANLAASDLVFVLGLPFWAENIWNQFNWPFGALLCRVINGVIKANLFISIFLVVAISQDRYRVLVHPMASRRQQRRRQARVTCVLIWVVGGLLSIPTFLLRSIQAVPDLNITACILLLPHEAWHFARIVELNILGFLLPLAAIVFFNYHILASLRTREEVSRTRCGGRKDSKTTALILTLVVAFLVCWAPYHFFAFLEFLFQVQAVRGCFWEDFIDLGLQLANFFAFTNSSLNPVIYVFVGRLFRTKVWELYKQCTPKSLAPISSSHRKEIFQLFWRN
Assay: Functional assay at bradykinin receptor 1 (B1R): Ca2+ fluorescence (Fluo-4) in FLIPR/Novostar, antagonist mode
Type: cell-based
Settings: test substance 10 µM; CHO K1 cells stably transfected with human B1R gene (hB1R-Zellen); agonist Lys-Des-Arg9-Bradykinin at EC80; % inhibition relative to maximal achievable inhibition; read-out: % Inhibierung (human B1R) bei 10 µM
Outline: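 Antagonism read as suppression of the Ca2+ rise in Fluo-4-loaded, hB1R-transfected CHO K1 cells when Lys-Des-Arg9-bradykinin (EC80) follows a 6–20 min compound preincubation. Maximal fluorescence counts, measured on FLIPR or Novostar, yield % inhibition relative to maximum; IC50 values come from concentration series run in duplicate or triplicate.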

| Structure (SMILES) | inhibition at 10 µM |
| --- | --- |
| Cc1cc(S(=O)(=O)Cc2noc(C(=O)NC3CCC(N(C)C)CC3)n2)c(C)cc1Cl (stereo not drawn) [CC-13, 3-[[(4-Chlor-2,5-dimethyl-phenyl)sulfonyl]-methyl]-N-(4-dimethylamino-cyclohexyl)-[1,2,4]oxa-diazol-5-carbonsäure amid] | 99% |
| COc1cc(C)c(S(=O)(=O)Cc2noc(CC(=O)N3CCC4(CCN(C)C4)C3)n2)c(C)c1 (stereo not drawn) [CC-130, 2-[3-[[(4-Methoxy-2,6-dimethyl-phenyl)sulfonyl]-methyl]-[1,2,4]oxadiazol-5-yl]-1-(2-methyl-2,8-diazaspiro[4.4]nonan-8-yl)-ethanon] | 99% |
| Cc1cccc(Cl)c1S(=O)(=O)Cc1noc(C(=O)NC2CCC(N3CCCC3)CC2(C)C)n1 (stereo not drawn) [CC-20, 3-[[(2-Chlor-6-methyl-phenyl)sulfonyl]-methyl]-N-(2,2-dimethyl-4-pyrrolidin-1-yl-cyclohexyl)-[1,2,4]oxadiazol-5-carbonsäure amid] | 89% |
| CN1CCN(C2CCC(NC(=O)Cc3nc(CS(=O)(=O)c4cccc(Cl)c4Cl)no3)C(C)(C)C2)CC1 (stereo not drawn) [CC-48, 2-[3-[[(2,3-Dichlor-phenyl)sulfonyl]-methyl]-[1,2,4]oxadiazol-5-yl]-N-[2,2-dimethyl-4-(4-methyl-piperazin-1-yl)-cyclohexyl]-acetamid] | 81% |
| COc1cc(C)c(S(=O)(=O)Cc2noc(C(=O)N(C)CCC3CCN(c4ccncc4)CC3)n2)c(C)c1 [CC-10, 3-[[(4-Methoxy-2,6-dimethyl-phenyl)sulfonyl]-methyl]-N-methyl-N-[2-(1-pyridin-4-yl-piperidin-4-yl)-ethyl]-[1,2,4]oxadiazol-5-carbonsäure amid] | 100% |
| COc1cc(C)c(S(=O)(=O)Cc2nnc(CC(=O)NC3CCN(C)CC3(C)C)o2)c(C)c1 (stereo not drawn) [CC-111, 2-[5-[[(4-Methoxy-2,6-dimethyl-phenyl)sulfonyl]-methyl]-[1,3,4]oxadiazol-2-yl]-N-(1,3,3-trimethyl-piperidin-4-yl)-acetamid] | 100% |
| COc1cc(C)c(S(=O)(=O)Cc2nc(CC(=O)NC3CCC(N(C)C)CC3)no2)c(C)c1 (stereo not drawn) [CC-28, N-(4-Dimethylamino-cyclohexyl)-2-[5-[[(4-methoxy-2,6-dimethyl-phenyl)sulfonyl]-methyl]-[1,2,4]oxadiazol-3-yl]-acetamid] | 100% |
| COc1cc(C)c(S(=O)(=O)Cc2nnc(CC(=O)NC3CCN(C(C)=O)CC3(C)C)o2)c(C)c1 (stereo not drawn) [CC-69, N-(1-Acetyl-3,3-dimethyl-piperidin-4-yl)-2-[5-[[(4-methoxy-2,6-dimethyl-phenyl)sulfonyl]-methyl]-[1,3,4]oxadiazol-2-yl]-acetamid] | 81% |
| COc1cc(C)c(S(=O)(=O)Cc2nnc(CC(=O)NC3CCC(N4CCCC4)CC3(C)C)o2)c(C)c1 (stereo not drawn) [CC-29, N-(2,2-Dimethyl-4-pyrrolidin-1-yl-cyclohexyl)-2-[5-[[(4-methoxy-2,6-dimethyl-phenyl)sulfonyl]-methyl]-[1,3,4]oxadiazol-2-yl]-acetamid] | 100% |
| Cc1cc(S(=O)(=O)Cc2noc(C(=O)N3CCC4(CC3)CCN(c3ccncc3)CC4)n2)c(C)cc1Cl [CC-146, [3-[[(4-Chlor-2,5-dimethyl-phenyl)sulfonyl]-methyl]-[1,2,4]oxadiazol-5-yl]-(9-pyridin-4-yl-3,9-diazaspiro[5.5]undecan-3-yl)-methanon] | 100% |
| Cc1cc(S(=O)(=O)Cc2noc(C(=O)N3CCC(N4CCN(C)CC4)CC3)n2)c(C)cc1Cl [CC-141, [3-[[(4-Chlor-2,5-dimethyl-phenyl)sulfonyl]-methyl]-[1,2,4]oxadiazol-5-yl]-[4-(4-methyl-piperazin-1-yl)-piperidin-1-yl]-methanon] | 99% |
| CN(C)C1CCC(N(C(=O)Cc2nc(CS(=O)(=O)c3cccc(Cl)c3Cl)no2)C2CC2)CC1 (stereo not drawn) [CC-112, N-Cyclopropyl-2-[3-[[(2,3-dichlor-phenyl)sulfonyl]-methyl]-[1,2,4]oxadiazol-5-yl]-N-(4-dimethyl-amino-cyclohexyl)-acetamid] | 67% |
| COc1cc(C)c(S(=O)(=O)Cc2cn(CC(=O)NC3CCNCC3)nn2)c(C)c1 [CC-182, 2-[4-[[(4-Methoxy-2,6-dimethyl-phenyl)sulfonyl]-methyl]-1H-[1,2,3]triazol-1-yl]-N-piperidin-4-yl-acetamid] | 99% |
| COc1cc(C)c(S(=O)(=O)Cc2cc(C)n(CC(=O)NC3CCNCC3(C)C)n2)c(C)c1 (stereo not drawn) [CC-171, N-(3,3-Dimethyl-piperidin-4-yl)-2-[3-[[(4-methoxy-2,6-dimethyl-phenyl)sulfonyl]-methyl]-5-methyl-1 H-pyrazol-1-yl]-acetamid] | 71% |
| COc1cc(C)c(S(=O)(=O)Cc2nc(CC(=O)NC3CCC(N4CCN(C)CC4)CC3(C)C)no2)c(C)c1 (stereo not drawn) [CC-33, N-[2,2-Dimethyl-4-(4-methyl-piperazin-1-yl)-cyclohexyl]-2-[5-[[(4-methoxy-2,6-dimethyl-phenyl)sulfonyl]-methyl]-[1,2,4]oxadiazol-3-yl]-acetamid] | 100% |
| COc1cc(C)c(S(=O)(=O)Cc2noc(CC(=O)NC3CCNCC3(C)C)n2)c(C)c1 (stereo not drawn) [CC-18, N-(3,3-Dimethyl-piperidin-4-yl)-2-[3-[[(4-methoxy-2,6-dimethyl-phenyl)sulfonyl]-methyl]-[1,2,4]oxadiazol-5-yl]-acetamid] | 100% |
| COc1cc(C)c(S(=O)(=O)Cc2cn(CC(=O)NC3CCC(NC4CC4)CC3(C)C)nn2)c(C)c1 (stereo not drawn) [CC-175, N-[4-(Cyclopropylamino)-2,2-dimethyl-cyclohexyl]-2-[4-[[(4-methoxy-2,6-dimethyl-phenyl)sulfonyl]-methyl]-1 H-[1,2,3]triazol-1-yl]-acetamid] | 100% |
| COc1cc(C)c(S(=O)(=O)Cc2nc(CC(=O)NC3CCN(C(C)=O)CC3(C)C)no2)c(C)c1 (stereo not drawn) [CC-30, N-(1-Acetyl-3,3-dimethyl-piperidin-4-yl)-2-[5-[[(4-methoxy-2,6-dimethyl-phenyl)sulfonyl]-methyl]-[1,2,4]oxadiazol-3-yl]-acetamid] | 90% |
| COc1cc(C)c(S(=O)(=O)Cc2nnc(CC(=O)NC3CCC(N4CCN(C)CC4)CC3(C)C)o2)c(C)c1 (stereo not drawn) [CC-86, N-[2,2-Dimethyl-4-(4-methyl-piperazin-1-yl)-cyclohexyl]-2-[5-[[(4-methoxy-2,6-dimethylphenyl)sulfonyl)-methyl]-[1,3,4]oxadiazol-2-yl]-acetamid] | 100% |
| COc1cc(C)c(S(=O)(=O)Cc2cn(CC(=O)NC3CCNCC3(C)C)nn2)c(C)c1 (stereo not drawn) [CC-176, N-(3,3-Dimethyl-piperidin-4-yl)-2-[4-[[(4-methoxy-2,6-dimethyl-phenyl)sulfonyl]-methyl]-1 H-[1,2,3]triazol-1-yl]-acetamid] | 100% |

Second part, the molecule after the results:

| inhibition at 10 µM | Structure (SMILES) |
| --- | --- |
| 100% | COc1cc(C)c(S(=O)(=O)Cc2noc(CC(=O)N(C)C3CCC(N4CCC(OC)CC4)CC3)n2)c(C)c1 (stereo not drawn) [SC-64, 2-[3-[[(4-Methoxy-2,6-dimethyl-phenyl)sulfonyl]-methyl]-[1,2,4]oxadiazol-5-yl]-N-[4-(4-methoxy-piperidin-1-yl)-cyclohexyl]-N-methyl-acetamid] |
| 100% | COc1cc(C)c(S(=O)(=O)Cc2noc(CC(=O)N(C)C3CCN(C(=O)CCN4CCCCC4)CC3)n2)c(C)c1 [SC-46, 2-[3-[[(4-Methoxy-2,6-dimethyl-phenyl)sulfonyl]-methyl]-[1,2,4]oxadiazol-5-yl]-N-methyl-N-[1-(3-piperidin-1-yl-propanoyl)-piperidin-4-yl]-acetamid] |
| 100% | COc1cc(C)c(S(=O)(=O)Cc2noc(CC(=O)N(C)C3CCN(C4CCOCC4)CC3)n2)c(C)c1 [SC-21, 2-[3-[[(4-Methoxy-2,6-dimethyl-phenyl)sulfonyl]-methyl]-[1,2,4]oxadiazol-5-yl]-N-methyl-N-(1-tetrahydro-pyran-4-yl-piperidin-4-yl)-acetamid] |
| 100% | COc1cc(C)c(S(=O)(=O)Cc2noc(CC(=O)N(C)[C@H]3CCC[C@@H](N4CCN(C)CC4)C3)n2)c(C)c1 [SC-44, 2-[3-[[(4-Methoxy-2,6-dimethyl-phenyl)sulfonyl]-methyl]-[1,2,4]oxadiazol-5-yl]-N-methyl-N-[(1S,3R)-3-(4-methyl-piperazin-1-yl)-cyclohexyl]-acetamid] |
| 100% | COc1cc(C)c(S(=O)(=O)Cc2noc(C(=O)N(C)[C@H]3CCC[C@@H](N4CCN(C)CC4)C3)n2)c(C)c1 [SC-43, 3-[[(4-Methoxy-2,6-dimethyl-phenyl)sulfonyl]-methyl]-N-methyl-N-[(1S,3R)-3-(4-methyl-piperazin-1-yl)-cyclohexyl]-[1,2,4]oxadiazol-5-carbonsäure amid] |
| 100% | COc1cc(C)c(S(=O)(=O)Cc2noc(CC(=O)N(C3CC3)C3CCN(c4ccncc4)CC3)n2)c(C)c1 [SC-22, N-Cyclopropyl-2-[3-[[(4-methoxy-2,6-dimethyl-phenyl)sulfonyl]-methyl]-[1,2,4]oxadiazol-5-yl]-N-(1-pyridin-4-yl-piperidin-4-yl)-acetamid] |
| 100% | COc1cc(C)c(S(=O)(=O)Cc2noc(CC(=O)N(C)C3CCN(Cc4cc(C)no4)CC3)n2)c(C)c1 [SC-72, 2-[3-[[(4-Methoxy-2,6-dimethyl-phenyl)sulfonyl]-methyl]-[1,2,4]oxadiazol-5-yl]-N-methyl-N-[1-[(3-methyl-isoxazol-5-yl)-methyl]-piperidin-4-yl]-acetamid] |
